Results on four compounds are retold here after the kinase profiling compilation of Christmann-Franck et al. (2016).

ERBB4 (human), sequence (Q15303 whole entry, looked up): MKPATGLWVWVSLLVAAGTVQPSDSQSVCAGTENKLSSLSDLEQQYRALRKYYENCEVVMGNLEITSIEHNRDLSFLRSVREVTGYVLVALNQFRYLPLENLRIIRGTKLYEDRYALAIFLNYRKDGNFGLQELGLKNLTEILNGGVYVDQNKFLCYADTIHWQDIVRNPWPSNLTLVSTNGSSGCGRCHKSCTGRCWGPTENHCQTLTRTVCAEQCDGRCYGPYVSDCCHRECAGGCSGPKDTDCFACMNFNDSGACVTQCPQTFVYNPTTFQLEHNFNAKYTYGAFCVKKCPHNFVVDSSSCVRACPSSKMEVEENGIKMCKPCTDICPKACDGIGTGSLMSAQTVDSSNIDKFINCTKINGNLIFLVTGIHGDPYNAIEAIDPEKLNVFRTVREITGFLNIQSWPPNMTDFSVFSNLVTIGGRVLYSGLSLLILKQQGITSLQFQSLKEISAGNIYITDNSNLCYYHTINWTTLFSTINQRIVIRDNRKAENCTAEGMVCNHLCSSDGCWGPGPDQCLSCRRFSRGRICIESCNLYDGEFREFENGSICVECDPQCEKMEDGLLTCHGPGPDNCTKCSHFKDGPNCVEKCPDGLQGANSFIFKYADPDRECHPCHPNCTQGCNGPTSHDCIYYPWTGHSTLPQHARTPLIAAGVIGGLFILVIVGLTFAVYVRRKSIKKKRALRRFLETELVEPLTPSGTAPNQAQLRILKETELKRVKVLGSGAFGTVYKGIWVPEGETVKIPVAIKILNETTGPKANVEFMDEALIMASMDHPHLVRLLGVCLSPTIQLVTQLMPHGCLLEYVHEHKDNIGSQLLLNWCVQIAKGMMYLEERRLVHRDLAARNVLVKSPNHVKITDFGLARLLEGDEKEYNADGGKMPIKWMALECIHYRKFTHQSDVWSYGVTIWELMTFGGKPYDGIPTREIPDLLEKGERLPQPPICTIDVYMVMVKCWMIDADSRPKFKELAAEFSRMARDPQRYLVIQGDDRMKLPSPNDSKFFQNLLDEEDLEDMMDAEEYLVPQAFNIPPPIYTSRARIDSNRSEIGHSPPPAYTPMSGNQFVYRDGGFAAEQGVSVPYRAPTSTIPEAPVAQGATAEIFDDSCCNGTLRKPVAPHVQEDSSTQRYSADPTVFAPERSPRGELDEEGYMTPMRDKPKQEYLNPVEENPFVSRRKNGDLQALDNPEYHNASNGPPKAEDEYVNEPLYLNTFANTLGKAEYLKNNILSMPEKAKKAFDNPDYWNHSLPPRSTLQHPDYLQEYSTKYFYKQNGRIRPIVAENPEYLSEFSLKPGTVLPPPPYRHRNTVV

For the first assay, the target named is ACVR1B (human) (UniProt P36896). In words: radiometric filter-binding kinase assay, Kinase HotSpot. The following applies: compound 0.5 µM; ATP 10 µM.
On to `Cn1cnc2cc3c(Nc4cccc(Br)c4)ncnc3cc21`, for which the residual activity is 111%.

For `O=C1Nc2ccccc2/C1=C1\Nc2ccccc2\C1=N/O`, the residual activity was 102%.

In the case of `O=C(Nc1cccc(Nc2cc(Nc3cccc(C(F)(F)F)c3)ncn2)c1)C1CC1`, the residual activity worked out at 101%.

Turning to `O=C1NC(=O)C(c2c[nH]c3ccccc23)=C1c1c[nH]c2ccccc12`, the residual activity was 112%.

The target of the next assay is AURKB (human) (UniProt Q96GD4). The assay is described as above. Conditions: compound 0.5 µM; ATP 10 µM.
AURKB (human), sequence (Q96GD4 whole entry, looked up): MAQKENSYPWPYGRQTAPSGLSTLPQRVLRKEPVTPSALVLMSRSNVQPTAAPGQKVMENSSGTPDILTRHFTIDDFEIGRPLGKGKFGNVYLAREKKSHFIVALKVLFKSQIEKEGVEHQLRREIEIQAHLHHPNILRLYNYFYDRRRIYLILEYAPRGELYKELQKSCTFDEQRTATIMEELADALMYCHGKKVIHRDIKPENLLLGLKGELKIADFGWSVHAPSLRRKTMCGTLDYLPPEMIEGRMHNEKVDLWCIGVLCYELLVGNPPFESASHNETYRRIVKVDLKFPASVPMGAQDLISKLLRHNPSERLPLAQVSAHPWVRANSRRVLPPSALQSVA
In the case of `Cn1cnc2cc3c(Nc4cccc(Br)c4)ncnc3cc21`, the residual activity is 78.2%.

For the compound `O=C1Nc2ccccc2/C1=C1\Nc2ccccc2\C1=N/O`, the residual activity was found to be 49.6%.

For the compound `O=C(Nc1cccc(Nc2cc(Nc3cccc(C(F)(F)F)c3)ncn2)c1)C1CC1`, the residual activity was determined as 98.9%.

For `O=C1NC(=O)C(c2c[nH]c3ccccc23)=C1c1c[nH]c2ccccc12`, the residual activity is 89.3%.

The target in a further assay is BRAF (human) (UniProt P15056). Described as above. The following applies: compound 0.5 µM; ATP 10 µM.
BRAF (human), sequence (P15056 whole entry, looked up): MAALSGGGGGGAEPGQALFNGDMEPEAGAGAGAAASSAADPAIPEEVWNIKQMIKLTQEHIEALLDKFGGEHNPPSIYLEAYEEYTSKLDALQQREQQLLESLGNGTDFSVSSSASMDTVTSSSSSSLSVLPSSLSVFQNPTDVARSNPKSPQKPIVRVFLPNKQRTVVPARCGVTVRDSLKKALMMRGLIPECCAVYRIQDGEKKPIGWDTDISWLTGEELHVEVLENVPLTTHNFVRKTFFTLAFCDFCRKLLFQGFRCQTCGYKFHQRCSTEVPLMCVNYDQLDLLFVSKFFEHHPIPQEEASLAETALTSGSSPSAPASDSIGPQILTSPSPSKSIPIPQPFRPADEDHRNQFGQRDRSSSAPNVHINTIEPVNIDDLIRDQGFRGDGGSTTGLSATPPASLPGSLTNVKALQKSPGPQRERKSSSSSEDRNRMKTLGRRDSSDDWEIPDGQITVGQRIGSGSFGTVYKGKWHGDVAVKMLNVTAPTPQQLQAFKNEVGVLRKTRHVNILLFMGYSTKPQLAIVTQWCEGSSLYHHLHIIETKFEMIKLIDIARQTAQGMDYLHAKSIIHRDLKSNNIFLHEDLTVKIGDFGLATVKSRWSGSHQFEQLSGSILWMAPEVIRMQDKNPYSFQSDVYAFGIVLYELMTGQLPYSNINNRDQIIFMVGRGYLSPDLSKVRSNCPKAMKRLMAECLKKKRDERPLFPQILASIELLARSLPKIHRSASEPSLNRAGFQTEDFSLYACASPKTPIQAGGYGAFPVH
As to `Cn1cnc2cc3c(Nc4cccc(Br)c4)ncnc3cc21`, the residual activity amounted to 94.2%.

On to `O=C1Nc2ccccc2/C1=C1\Nc2ccccc2\C1=N/O`, for which the residual activity came to 105%.

Turning to `O=C(Nc1cccc(Nc2cc(Nc3cccc(C(F)(F)F)c3)ncn2)c1)C1CC1`, the residual activity is 96.8%.

On to `O=C1NC(=O)C(c2c[nH]c3ccccc23)=C1c1c[nH]c2ccccc12`, for which the residual activity is 101%.

In the next assay the target is CAMK1D (human) (UniProt Q8IU85). The description is as above. The following applies: compound 0.5 µM; ATP 10 µM.
CAMK1D (human), sequence (Q8IU85 whole entry, looked up): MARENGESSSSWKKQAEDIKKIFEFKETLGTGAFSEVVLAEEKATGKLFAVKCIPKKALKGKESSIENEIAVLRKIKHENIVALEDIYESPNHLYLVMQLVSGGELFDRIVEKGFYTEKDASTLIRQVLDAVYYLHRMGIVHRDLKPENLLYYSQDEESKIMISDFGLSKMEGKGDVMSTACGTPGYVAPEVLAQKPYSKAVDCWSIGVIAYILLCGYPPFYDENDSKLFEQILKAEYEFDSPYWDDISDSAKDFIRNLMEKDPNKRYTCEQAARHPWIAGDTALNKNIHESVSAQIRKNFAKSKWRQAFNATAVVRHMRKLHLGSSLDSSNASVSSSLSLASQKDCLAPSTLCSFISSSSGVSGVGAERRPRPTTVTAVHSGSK
Consider `Cn1cnc2cc3c(Nc4cccc(Br)c4)ncnc3cc21`, for which the residual activity came out at 104%.

With `O=C1Nc2ccccc2/C1=C1\Nc2ccccc2\C1=N/O`, the residual activity is 92.3%.

For `O=C(Nc1cccc(Nc2cc(Nc3cccc(C(F)(F)F)c3)ncn2)c1)C1CC1`, the residual activity came to 100%.

On to `O=C1NC(=O)C(c2c[nH]c3ccccc23)=C1c1c[nH]c2ccccc12`, for which the residual activity amounted to 106%.

The target in another assay is CAMK2G (human) (UniProt Q13555). The description is as above. The following applies: compound 0.5 µM; ATP 10 µM.
CAMK2G (human), sequence (Q13555 whole entry, looked up): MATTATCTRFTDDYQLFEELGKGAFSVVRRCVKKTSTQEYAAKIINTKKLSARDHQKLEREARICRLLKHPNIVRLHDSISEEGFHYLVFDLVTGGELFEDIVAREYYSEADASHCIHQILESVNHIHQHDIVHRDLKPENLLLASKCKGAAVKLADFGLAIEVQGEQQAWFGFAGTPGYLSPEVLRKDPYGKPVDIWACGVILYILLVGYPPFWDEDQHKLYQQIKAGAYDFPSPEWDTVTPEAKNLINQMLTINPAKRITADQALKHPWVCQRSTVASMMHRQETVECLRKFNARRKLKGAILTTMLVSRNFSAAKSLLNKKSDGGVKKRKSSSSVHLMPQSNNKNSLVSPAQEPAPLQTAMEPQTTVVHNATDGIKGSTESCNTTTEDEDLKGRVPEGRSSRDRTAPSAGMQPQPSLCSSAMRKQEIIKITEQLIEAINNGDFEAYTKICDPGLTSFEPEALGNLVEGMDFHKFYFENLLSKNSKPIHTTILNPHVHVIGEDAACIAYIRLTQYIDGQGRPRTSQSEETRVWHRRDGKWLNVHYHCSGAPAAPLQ
On to `Cn1cnc2cc3c(Nc4cccc(Br)c4)ncnc3cc21`, for which the residual activity was 104%.

As to `O=C1Nc2ccccc2/C1=C1\Nc2ccccc2\C1=N/O`, the residual activity was determined as 69.8%.

In the case of `O=C(Nc1cccc(Nc2cc(Nc3cccc(C(F)(F)F)c3)ncn2)c1)C1CC1`, the residual activity is 96.1%.

For the compound `O=C1NC(=O)C(c2c[nH]c3ccccc23)=C1c1c[nH]c2ccccc12`, the residual activity came out at 104%.

Another assay addresses CDK2 CCNA2 (human) (UniProt P24941+P20248). The description is as above. The following applies: compound 0.5 µM; ATP 10 µM.
In the case of `Cn1cnc2cc3c(Nc4cccc(Br)c4)ncnc3cc21`, the residual activity turned out to be 90.1%.

For `O=C1Nc2ccccc2/C1=C1\Nc2ccccc2\C1=N/O`, the residual activity stood at 29.6%.

For `O=C(Nc1cccc(Nc2cc(Nc3cccc(C(F)(F)F)c3)ncn2)c1)C1CC1`, the residual activity stood at 99.5%.

Regarding `O=C1NC(=O)C(c2c[nH]c3ccccc23)=C1c1c[nH]c2ccccc12`, the residual activity came out at 81.9%.

A further assay addresses CLK2 (human) (UniProt P49760). The assay is described as above. Conditions: compound 0.5 µM; ATP 10 µM.
`Cn1cnc2cc3c(Nc4cccc(Br)c4)ncnc3cc21`: the residual activity turned out to be 93.9%.

On to `O=C1Nc2ccccc2/C1=C1\Nc2ccccc2\C1=N/O`, for which the residual activity stood at 92.5%.

Consider `O=C(Nc1cccc(Nc2cc(Nc3cccc(C(F)(F)F)c3)ncn2)c1)C1CC1`, for which the residual activity was found to be 97.3%.

Turning to `O=C1NC(=O)C(c2c[nH]c3ccccc23)=C1c1c[nH]c2ccccc12`, the residual activity was 46.7%.

The next assay addresses CLK4 (human) (UniProt Q9HAZ1). The assay is described as above. Conditions: compound 0.5 µM; ATP 10 µM.
As for `Cn1cnc2cc3c(Nc4cccc(Br)c4)ncnc3cc21`, the residual activity is 88.5%.

For the compound `O=C1Nc2ccccc2/C1=C1\Nc2ccccc2\C1=N/O`, the residual activity was found to be 59.2%.

`O=C(Nc1cccc(Nc2cc(Nc3cccc(C(F)(F)F)c3)ncn2)c1)C1CC1`: the residual activity was determined as 97.3%.

As for `O=C1NC(=O)C(c2c[nH]c3ccccc23)=C1c1c[nH]c2ccccc12`, the residual activity came out at 76.1%.

The target of another assay is CSNK1G2 (human) (UniProt P78368). The description is as above. The following applies: compound 0.5 µM; ATP 10 µM.
Regarding `Cn1cnc2cc3c(Nc4cccc(Br)c4)ncnc3cc21`, the residual activity stood at 89.2%.

With `O=C1Nc2ccccc2/C1=C1\Nc2ccccc2\C1=N/O`, the residual activity was found to be 89.4%.

As for `O=C(Nc1cccc(Nc2cc(Nc3cccc(C(F)(F)F)c3)ncn2)c1)C1CC1`, the residual activity worked out at 99.1%.

On to `O=C1NC(=O)C(c2c[nH]c3ccccc23)=C1c1c[nH]c2ccccc12`, for which the residual activity stood at 92%.

A further assay concerns the target DAPK2 (human) (UniProt Q9UIK4). The assay is described as above. The following applies: compound 0.5 µM; ATP 10 µM.
As for `Cn1cnc2cc3c(Nc4cccc(Br)c4)ncnc3cc21`, the residual activity was determined as 92.5%.

Consider `O=C1Nc2ccccc2/C1=C1\Nc2ccccc2\C1=N/O`, for which the residual activity stood at 110%.

In the case of `O=C(Nc1cccc(Nc2cc(Nc3cccc(C(F)(F)F)c3)ncn2)c1)C1CC1`, the residual activity was found to be 99%.

Regarding `O=C1NC(=O)C(c2c[nH]c3ccccc23)=C1c1c[nH]c2ccccc12`, the residual activity was 88.6%.

The next assay concerns the target DMPK (human) (UniProt Q09013). The description is as above. The following applies: compound 0.5 µM; ATP 10 µM.
With `Cn1cnc2cc3c(Nc4cccc(Br)c4)ncnc3cc21`, the residual activity came to 98.4%.

As to `O=C1Nc2ccccc2/C1=C1\Nc2ccccc2\C1=N/O`, the residual activity was 101%.

Consider `O=C(Nc1cccc(Nc2cc(Nc3cccc(C(F)(F)F)c3)ncn2)c1)C1CC1`, for which the residual activity was found to be 99.7%.

As to `O=C1NC(=O)C(c2c[nH]c3ccccc23)=C1c1c[nH]c2ccccc12`, the residual activity stood at 97.3%.

The next assay addresses ERBB4 (human) (UniProt Q15303). The assay is described as above. The following applies: compound 0.5 µM; ATP 10 µM.
For `Cn1cnc2cc3c(Nc4cccc(Br)c4)ncnc3cc21`, the residual activity amounted to 75.5%.

For `O=C1Nc2ccccc2/C1=C1\Nc2ccccc2\C1=N/O`, the residual activity was found to be 102%.

For the compound `O=C(Nc1cccc(Nc2cc(Nc3cccc(C(F)(F)F)c3)ncn2)c1)C1CC1`, the residual activity was found to be 99.2%.

As for `O=C1NC(=O)C(c2c[nH]c3ccccc23)=C1c1c[nH]c2ccccc12`, the residual activity turned out to be 110%.

In another assay the target is FER (human) (UniProt P16591). Described as above. Conditions: compound 0.5 µM; ATP 10 µM.
As to `Cn1cnc2cc3c(Nc4cccc(Br)c4)ncnc3cc21`, the residual activity turned out to be 90.6%.

`O=C1Nc2ccccc2/C1=C1\Nc2ccccc2\C1=N/O`: the residual activity was determined as 67.8%.

In the case of `O=C(Nc1cccc(Nc2cc(Nc3cccc(C(F)(F)F)c3)ncn2)c1)C1CC1`, the residual activity is 102%.

On to `O=C1NC(=O)C(c2c[nH]c3ccccc23)=C1c1c[nH]c2ccccc12`, for which the residual activity is 83.5%.

The target of another assay is FGFR2 (human) (UniProt P21802). Described as above. Conditions: compound 0.5 µM; ATP 10 µM.
FGFR2 (human), sequence (P21802 whole entry, looked up): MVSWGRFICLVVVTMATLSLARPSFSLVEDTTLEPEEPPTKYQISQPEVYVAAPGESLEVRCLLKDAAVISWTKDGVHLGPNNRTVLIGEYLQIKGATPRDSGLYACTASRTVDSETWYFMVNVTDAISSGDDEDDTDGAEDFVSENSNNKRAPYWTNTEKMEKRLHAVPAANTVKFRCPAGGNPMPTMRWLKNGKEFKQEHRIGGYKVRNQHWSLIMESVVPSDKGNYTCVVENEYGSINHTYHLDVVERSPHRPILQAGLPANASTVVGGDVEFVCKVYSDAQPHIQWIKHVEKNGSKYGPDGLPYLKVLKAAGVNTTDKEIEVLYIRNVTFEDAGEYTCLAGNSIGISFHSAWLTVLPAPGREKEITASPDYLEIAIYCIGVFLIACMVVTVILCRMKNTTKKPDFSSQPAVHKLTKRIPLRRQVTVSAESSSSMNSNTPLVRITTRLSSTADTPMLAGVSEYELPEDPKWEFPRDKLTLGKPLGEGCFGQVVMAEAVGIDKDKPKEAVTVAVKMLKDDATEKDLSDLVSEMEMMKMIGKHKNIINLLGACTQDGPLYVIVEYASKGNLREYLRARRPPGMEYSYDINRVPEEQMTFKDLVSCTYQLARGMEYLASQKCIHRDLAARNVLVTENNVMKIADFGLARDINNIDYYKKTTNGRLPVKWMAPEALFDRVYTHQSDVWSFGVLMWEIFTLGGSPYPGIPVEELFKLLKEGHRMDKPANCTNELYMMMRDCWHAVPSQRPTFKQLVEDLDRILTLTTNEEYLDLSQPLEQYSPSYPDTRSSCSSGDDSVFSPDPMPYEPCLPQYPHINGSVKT
With `Cn1cnc2cc3c(Nc4cccc(Br)c4)ncnc3cc21`, the residual activity was 98%.

As to `O=C1Nc2ccccc2/C1=C1\Nc2ccccc2\C1=N/O`, the residual activity came to 92.1%.

As for `O=C(Nc1cccc(Nc2cc(Nc3cccc(C(F)(F)F)c3)ncn2)c1)C1CC1`, the residual activity amounted to 105%.

`O=C1NC(=O)C(c2c[nH]c3ccccc23)=C1c1c[nH]c2ccccc12`: the residual activity turned out to be 89.4%.

The target in a further assay is FGFR3 (human) (UniProt P22607). Described as above. Conditions: compound 0.5 µM; ATP 10 µM.
FGFR3 (human), sequence (P22607 whole entry, looked up): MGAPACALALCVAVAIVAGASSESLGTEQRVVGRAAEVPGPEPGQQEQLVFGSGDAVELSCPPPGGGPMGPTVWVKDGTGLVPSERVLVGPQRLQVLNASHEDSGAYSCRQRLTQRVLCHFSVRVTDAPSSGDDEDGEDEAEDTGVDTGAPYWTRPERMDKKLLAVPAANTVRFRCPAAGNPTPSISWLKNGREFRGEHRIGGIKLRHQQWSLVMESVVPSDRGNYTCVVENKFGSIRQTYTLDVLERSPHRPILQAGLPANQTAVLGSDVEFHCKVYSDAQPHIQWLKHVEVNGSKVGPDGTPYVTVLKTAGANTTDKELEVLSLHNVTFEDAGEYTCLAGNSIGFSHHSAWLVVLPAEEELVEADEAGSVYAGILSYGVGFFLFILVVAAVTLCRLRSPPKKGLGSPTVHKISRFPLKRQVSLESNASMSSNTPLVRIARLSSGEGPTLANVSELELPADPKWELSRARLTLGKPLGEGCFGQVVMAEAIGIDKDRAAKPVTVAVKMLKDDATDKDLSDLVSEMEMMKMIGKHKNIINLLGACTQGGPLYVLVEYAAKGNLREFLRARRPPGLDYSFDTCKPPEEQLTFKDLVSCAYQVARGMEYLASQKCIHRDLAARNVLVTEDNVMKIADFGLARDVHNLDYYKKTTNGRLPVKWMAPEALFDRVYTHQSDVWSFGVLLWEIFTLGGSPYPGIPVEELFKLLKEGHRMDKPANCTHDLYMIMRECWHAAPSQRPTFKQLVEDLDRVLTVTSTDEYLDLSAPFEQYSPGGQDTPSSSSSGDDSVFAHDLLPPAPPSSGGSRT
For `Cn1cnc2cc3c(Nc4cccc(Br)c4)ncnc3cc21`, the residual activity was found to be 98.6%.

Regarding `O=C1Nc2ccccc2/C1=C1\Nc2ccccc2\C1=N/O`, the residual activity was found to be 70.4%.

For the compound `O=C(Nc1cccc(Nc2cc(Nc3cccc(C(F)(F)F)c3)ncn2)c1)C1CC1`, the residual activity turned out to be 102%.

Consider `O=C1NC(=O)C(c2c[nH]c3ccccc23)=C1c1c[nH]c2ccccc12`, for which the residual activity worked out at 70.7%.

The next assay concerns the target GSG2 (human) (UniProt Q8TF76). Described as above. The following applies: compound 0.5 µM; ATP 10 µM.
Consider `Cn1cnc2cc3c(Nc4cccc(Br)c4)ncnc3cc21`, for which the residual activity was found to be 89.4%.

As to `O=C1Nc2ccccc2/C1=C1\Nc2ccccc2\C1=N/O`, the residual activity is 65.6%.

As for `O=C(Nc1cccc(Nc2cc(Nc3cccc(C(F)(F)F)c3)ncn2)c1)C1CC1`, the residual activity is 96.4%.

In the case of `O=C1NC(=O)C(c2c[nH]c3ccccc23)=C1c1c[nH]c2ccccc12`, the residual activity was found to be 84.7%.

Another assay deals with JAK3 JH1 JH2 (human) (UniProt P52333). The description is as above. The following applies: compound 0.5 µM; ATP 10 µM.
With `Cn1cnc2cc3c(Nc4cccc(Br)c4)ncnc3cc21`, the residual activity is 106%.

On to `O=C1Nc2ccccc2/C1=C1\Nc2ccccc2\C1=N/O`, for which the residual activity was found to be 51.5%.

As to `O=C(Nc1cccc(Nc2cc(Nc3cccc(C(F)(F)F)c3)ncn2)c1)C1CC1`, the residual activity amounted to 106%.

Take `O=C1NC(=O)C(c2c[nH]c3ccccc23)=C1c1c[nH]c2ccccc12`: the residual activity is 63%.

The next assay has as its target MAP3K14 (human) (UniProt Q99558). The assay is described as above. Conditions: compound 0.5 µM; ATP 10 µM.
Turning to `Cn1cnc2cc3c(Nc4cccc(Br)c4)ncnc3cc21`, the residual activity came out at 90.6%.

As for `O=C1Nc2ccccc2/C1=C1\Nc2ccccc2\C1=N/O`, the residual activity worked out at 88.7%.
